Measured values: article PMC9457533, “Study on Metronidazole Acid-Base Behavior and Speciation with Ca^2+ for Potential Applications in Natural Waters” (Molecules, 2022)
Several values for one entry are separate records, joined by “and”; a condition that tells them apart may be missing. Equal values may be shown once. Read-outs that look alike come from different tables or passages of the source.

How the values were obtained:
[1] = Potentiometric titrations: formation constant of Ca^2+-MNZ species (CaLH) in NaCl; assay type: physicochemical; settings: for logK^CaLH: Ca + LH = CaLH
Experimental: To investigate the interaction between MNZ and Ca^2+, various potentiometric titrations were also performed on solutions containing different metal/ligand ratios. The reactions related to formation constants are indicated below, where the charges are omitted for simplicity and MNZ was indicated as L:Ca + L + rH = MLHr β^MLH^r(3) Ca + LHr = MLHr K^MLH^r(4)
Hydrolysis constant values of Ca^2+ species at various temperatures and ionic strength in NaCl, taken into account in the calculations relating to the M-L system, are reported in Supplementary Material. The most accurate speciation model is chosen by evaluating several factors, which are the statistical parameters standard and mean deviation, the formation percentages of the considered species, and the simplicity of the model. Based on potentiometric results, several computational tests were carried out considering different speciation models.
The potentiometric titrations were employed by Metrohm-Titrando 809 automated potentiometer with a combined glass electrode ORION, type Ross 8102SC and a Metrohm Dosino 800 automatic dispenser. The titrations were performed in cells with a capacity of 25 mL, characterized by a double wall inside which thermostated water circulates. The cells were connected to a thermostat model D1-G Haake. During the measurements, pure N2 was bubbled to avoid CO2 and O2 in solution. The system is interfaced to a PC through the Metrohm TIAMO 2.0 software, which automatically acquires the mL/mV pairs. It can control several parameters, such as e.m.f. stability, titrant delivery, and data acquisition. Estimated accuracy of this apparatus is ±0.15 mV and ±0.002 mL for e.m.f. and for readings of titrant volume. The acid-base titrations were carried out first on 25 mL solutions containing L, HCl, and NaCl as supporting electrolytes at different temperatures and ionic strength conditions. […] The solutions were titrated using standard NaOH solution. A calibration was associated with each measurement by titration with NaOH of a solution containing HCl, NaCl, and H2O, in order to calculate the standard electrode potential (E^0) and the pKw values.
(§1) The protonation constant of MNZ (L), formation constant values of Ca^2+(M)-MNZ (L), and titration parameters (analytical concentration of the reagents, standard potential E^0, junction potential) were determined by using BSTAC and STACO programs. LIANA program has provided the parameters characterizing the dependence of the protonation and formation constant values on the temperature and ionic strength. More details on software are present in ref. [59]. ^1H NMR data were processed by HypNMR software, which allows for calculating protonation and formation constant values and the individual chemical shift of species through the observed signals and assuming fast mutual exchange in the NMR time scale. UV-Vis data are processed by the HypSpec program, which allows refining of the protonation and formation constant as well as the molar absorption coefficient values (ε) of the species. The speciation diagrams and the formation percentage of the species are determined by the Hyss program.

[2] = Dependence of Ca^2+-MNZ formation constant on ionic strength (Debye-Hückel type equation); assay type: physicochemical; settings: Ca + L + H = CaLH, t = 25 °C, NaCl
Text: The choice to carry out the experiments at various ionic strengths made it possible to study the dependence of the values of the protonation and formation constants on the ionic strength, expressed by a Debye-Hückel type equation, reported below: (5) logβ=logβ^T − 0.51 z* I/1 + 1.5 I + CI where β^T is the protonation constant at infinite dilution, z* is the parameter that refers to the charges present in the solution corresponding to ∑z^2reagents − ∑z^2products, and C refers to the empirical parameter that depends on the stoichiometric coefficients and on the charges. Using Equation (5) and equilibrium constants at various ionic strength values, the formation constants extrapolated to I = 0 mol L^−1, together with the empirical parameter C, were obtained.
The protonation constant of MNZ (L), formation constant values of Ca^2+(M)-MNZ (L), and titration parameters (analytical concentration of the reagents, standard potential E^0, junction potential) were determined by using BSTAC and STACO programs. LIANA program has provided the parameters characterizing the dependence of the protonation and formation constant values on the temperature and ionic strength. […] The speciation diagrams and the formation percentage of the species are determined by the Hyss program.

[3] = Dependence of Ca^2+-MNZ formation constant on temperature (van't Hoff equation), thermodynamic parameters; assay type: physicochemical; settings: Ca + LH = CaLH; t = 298.15 K, I = 0.15 mol L^-1 NaCl
Experimental: The protonation and formation constants values acquired at the three different temperatures of 15, 25, and 37 °C, listed in Table 1, were used to study their dependence on temperature, as already shown for several systems. The data obtained by the potentiometric measurements were analyzed using the following van’t Hoff equation:logβT = logβθ + ΔH^0(1/θ − 1/T) R ln 10(6) where logβT is the stability constant at a certain temperature (expressed in kelvin), while logβθ is the stability constant at t = 298.15 K, and R is the universal gas constant expressed as 8.314 J K^−1 mol^−1. Using the equation just reported, it was possible to calculate the protonation and formation enthalpies change values, together with Gibbs free energy and entropy changes.
as §1

[4] = Distribution diagram of Ca^2+-MNZ system vs pH; assay type: physicochemical; settings: I = 0.15 mol L^-1, CL = 2 mmol L^-1, CCa = 1 mmol L^-1, 4 ≤ pH ≤ 10
Experimental: as §1

[5] = Speciation simulation of MNZ under sea water conditions; settings: pH = 8.1, I = 0.7 mol L^-1, t = 25 °C
Experimental: In order to assess the relevance of the Ca^2+ complex in sea water conditions, the average concentrations of MNZ (L), Ca^2+, Mg^2+, and other divalent cations such as Cu^2+ and Zn^2+, were considered. With the use of the thermodynamic data here determined, it is possible to carry out simulations in sea water conditions. More in detail, the protonation constants of L and the stability constants of Ca^2+-L complex species were calculated by data in Table 3 at I = 0.7 mol L^−1, i.e., the mean ionic strength of sea water. For Cu^2+-L and Zn^2+-L complexes, data of formation constants determined by us and not yet published were used. […] Formation constant values of Cu^2+- and Zn^2+-L species under sea water conditions, belonging to our unpublished study, are summarized in the Supplementary Materials.
as §1

[6] = parameters: method as in PMID 33975173; settings: t = 25 °C, I = 0.1 mol L^-1 in NaClO4, spectrophotometry; cited from earlier work
[7] = parameters: method as in PMID 23380153; settings: 25 °C, I = 0.2 mol L^-1 in NaCl, water-ethanol (90:10, v/v), potentiometric titrations; cited from earlier work
[8] = CL = 8·10^-10 mol L^-1, CZn = 1.5·10^-9 mol L^-1

Cc1ncc([N+](=O)[O-])n1CCO [MNZ, 2-Methyl-5-nitroimidazole-1-ethanol]
logβ^CaLH ([1]; Ca + L + H = CaLH, t = 15 °C, I = 0.16 mol L^-1 NaCl): 14.06(11) ^4, 5
logβ average value ([1]; Ca + L + H = CaLH, t = 25 °C, I = 0.15 mol L^-1, average of UV, potentiometry): 14.16(7)
logβ^CaLH ([1]; Ca + L + H = CaLH, t = 25 °C, I = 0.5 mol L^-1 NaCl): 15.00(2)
logβ^CaLH ([1]; Ca + L + H = CaLH, t = 25 °C, I = 0.98 mol L^-1 NaCl): 14.60(5) ^6
logβ^CaLH ([1]; Ca + L + H = CaLH, t = 37 °C, I = 0.15 mol L^-1 NaCl): 13.56(8) ^7
logK^CaLH ([1]; t = 15 °C, I = 0.16 mol L^-1 NaCl): 2.06 ^5
logK^CaLH ([1]; t = 25 °C, I = 0.16 mol L^-1 NaCl (text: 0.15)): 2.49 ^5
logK^CaLH ([1]; t = 25 °C, I = 0.5 mol L^-1 NaCl): 2.49
logK^CaLH ([1]; t = 25 °C, I = 0.98 mol L^-1 NaCl): 2.38 ^6
logK^CaLH ([1]; t = 37 °C, I = 0.15 mol L^-1 NaCl): 1.68 and 1.68 ^7
C (empirical parameter for dependence on ionic strength, Equation (5)) [2]: 1.0(2)
log^Tβ (constant at infinite dilution) ([2]; extrapolated to I = 0 mol L^-1): 15.0(2)
TΔS [3]: -4.78 kcal/mol
ΔG [3]: -3.39 kcal/mol
ΔH [3]: -34 kJ mol^-1 and −34(8) kJ mol^-1
maximum metal fraction of CaLH species ([4]; t = 25 °C): 0.4
maximum metal fraction of CaLH species ([4]; t = 37 °C): over 0.1
percentage of LH species ([5]; CL = 8·10^-10 mol L^-1): 22%
percentage of CaLH species ([5]; CL = 8·10^-10 mol L^-1, CCa = 0.01 mol L^-1): 29%
percentage of CuL species ([5]; CL = 8·10^-10 mol L^-1, CCu = 4·10^-5 mol L^-1): 10%
percentage of ZnL species [5, 8]: 4%
percentage of ZnLOH species [5, 8]: 35%
logK2 (protonation constant) [6]: 2.15
logK1 (protonation constant) [7]: 18.1
logK2 (protonation constant) [7]: 7.01
logK3 (protonation constant) [7]: 2.64
